{
  "source": "ChEMBL document CHEMBL4804284",
  "parameters_in_all_cases": "scale not given: the % may be the effect or the level left",
  "key": {"[1]": {"target": "Non-receptor tyrosine-protein kinase TYK2 (Homo sapiens) (UniProt P29597)", "assay": "Inhibition of DNA-tagged human TYK2 JH2 pseudokinase domain assessed as percent of control at 50000 nM by qPCR analysis relative to control"}, "[2]": {"target": "Cyclin-dependent kinase 9 (Homo sapiens) (UniProt P50750)", "assay": "Inhibition of DNA-tagged human CDK9 assessed as percent of control at 50000 nM by qPCR analysis relative to control"}, "[3]": {"target": "Calcium/calmodulin-dependent protein kinase kinase 1 (Homo sapiens) (UniProt Q8N5S9)", "assay": "Inhibition of DNA-tagged human CAMKK1 assessed as percent of control at 50000 nM by qPCR analysis relative to control"}, "[4]": {"target": "Dual specificity tyrosine-phosphorylation-regulated kinase 1B (Homo sapiens) (UniProt Q9Y463)", "sequence (Q9Y463 whole entry, looked up)": "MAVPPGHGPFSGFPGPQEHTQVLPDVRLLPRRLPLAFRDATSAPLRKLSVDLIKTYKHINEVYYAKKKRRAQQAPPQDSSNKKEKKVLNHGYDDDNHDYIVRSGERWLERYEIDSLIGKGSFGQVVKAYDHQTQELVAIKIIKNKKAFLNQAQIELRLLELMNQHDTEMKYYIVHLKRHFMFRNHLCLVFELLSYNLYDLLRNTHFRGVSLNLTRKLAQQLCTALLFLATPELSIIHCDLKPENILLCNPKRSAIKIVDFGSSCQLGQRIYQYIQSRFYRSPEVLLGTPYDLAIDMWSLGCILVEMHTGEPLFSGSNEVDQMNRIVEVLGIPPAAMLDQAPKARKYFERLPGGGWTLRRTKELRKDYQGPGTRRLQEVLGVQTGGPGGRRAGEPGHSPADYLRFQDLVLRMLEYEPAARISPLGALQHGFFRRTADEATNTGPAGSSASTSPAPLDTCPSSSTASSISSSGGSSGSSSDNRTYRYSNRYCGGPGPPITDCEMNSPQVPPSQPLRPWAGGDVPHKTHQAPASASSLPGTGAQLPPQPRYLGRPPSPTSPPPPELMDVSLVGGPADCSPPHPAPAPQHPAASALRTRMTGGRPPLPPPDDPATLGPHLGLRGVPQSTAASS", "assay": "Inhibition of DNA-tagged human DYRK1B assessed as percent of control at 50000 nM by qPCR analysis relative to control"}, "[5]": {"target": "Myosin-IIIb (Homo sapiens) (UniProt Q8WXR4)", "assay": "Inhibition of DNA-tagged human MYO3B assessed as percent of control at 50000 nM by qPCR analysis relative to control"}, "[6]": {"target": "Protein-tyrosine kinase 2-beta (Homo sapiens) (UniProt Q14289)", "sequence (Q14289 whole entry, looked up)": "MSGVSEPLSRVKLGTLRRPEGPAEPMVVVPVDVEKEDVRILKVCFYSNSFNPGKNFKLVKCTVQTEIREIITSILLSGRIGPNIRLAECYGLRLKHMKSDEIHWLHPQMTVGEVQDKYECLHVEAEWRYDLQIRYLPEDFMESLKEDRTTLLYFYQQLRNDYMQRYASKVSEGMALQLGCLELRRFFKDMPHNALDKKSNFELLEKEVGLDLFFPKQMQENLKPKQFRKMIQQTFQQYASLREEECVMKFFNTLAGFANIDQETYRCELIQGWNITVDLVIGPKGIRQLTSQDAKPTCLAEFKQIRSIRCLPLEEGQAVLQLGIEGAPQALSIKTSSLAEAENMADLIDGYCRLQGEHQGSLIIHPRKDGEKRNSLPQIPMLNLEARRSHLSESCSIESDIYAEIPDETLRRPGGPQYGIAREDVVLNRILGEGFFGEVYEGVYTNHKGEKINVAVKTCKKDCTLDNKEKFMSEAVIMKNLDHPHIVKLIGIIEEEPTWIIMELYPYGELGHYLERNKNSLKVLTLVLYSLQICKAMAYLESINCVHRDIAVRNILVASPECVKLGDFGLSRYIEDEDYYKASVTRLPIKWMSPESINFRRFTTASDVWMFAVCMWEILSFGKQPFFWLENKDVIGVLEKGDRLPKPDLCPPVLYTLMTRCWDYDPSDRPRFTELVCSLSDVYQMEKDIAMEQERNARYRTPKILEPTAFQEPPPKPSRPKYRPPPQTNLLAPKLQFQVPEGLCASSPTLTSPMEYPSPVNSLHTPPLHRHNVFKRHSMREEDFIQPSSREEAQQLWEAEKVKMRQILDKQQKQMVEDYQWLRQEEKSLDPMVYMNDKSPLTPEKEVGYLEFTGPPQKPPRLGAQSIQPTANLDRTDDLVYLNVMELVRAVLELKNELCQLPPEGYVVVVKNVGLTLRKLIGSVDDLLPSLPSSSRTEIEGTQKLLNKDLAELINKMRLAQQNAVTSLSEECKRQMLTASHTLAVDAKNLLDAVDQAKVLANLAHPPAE", "assay": "Inhibition of DNA-tagged human PYK2 assessed as percent of control at 50000 nM by qPCR analysis relative to control"}, "[7]": {"target": "Transient receptor potential cation channel subfamily M member 6 (Homo sapiens) (UniProt Q9BX84)", "assay": "Inhibition of DNA-tagged human TRPM6 assessed as percent of control at 50000 nM by qPCR analysis relative to control"}, "[8]": {"target": "Serine/threonine-protein kinase RIO1 (Homo sapiens) (UniProt Q9BRS2)", "sequence (Q9BRS2 whole entry)": "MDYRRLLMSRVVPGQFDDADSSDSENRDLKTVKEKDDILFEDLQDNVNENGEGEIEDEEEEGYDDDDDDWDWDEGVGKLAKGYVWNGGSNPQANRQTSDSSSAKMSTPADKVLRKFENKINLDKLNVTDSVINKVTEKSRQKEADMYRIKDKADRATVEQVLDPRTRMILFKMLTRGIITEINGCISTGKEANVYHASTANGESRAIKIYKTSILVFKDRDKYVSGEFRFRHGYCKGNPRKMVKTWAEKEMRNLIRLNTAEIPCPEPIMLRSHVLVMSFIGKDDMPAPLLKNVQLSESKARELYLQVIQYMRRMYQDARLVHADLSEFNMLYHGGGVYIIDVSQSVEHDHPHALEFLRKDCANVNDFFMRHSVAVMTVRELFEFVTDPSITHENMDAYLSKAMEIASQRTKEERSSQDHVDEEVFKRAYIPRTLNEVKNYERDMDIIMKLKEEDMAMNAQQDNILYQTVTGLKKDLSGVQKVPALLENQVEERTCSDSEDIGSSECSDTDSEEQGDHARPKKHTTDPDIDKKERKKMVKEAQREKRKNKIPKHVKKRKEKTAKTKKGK", "assay": "Inhibition of DNA-tagged human RIOK1 assessed as percent of control at 50000 nM by qPCR analysis relative to control"}, "[9]": {"target": "Phosphatidylinositol 4,5-bisphosphate 3-kinase catalytic subunit gamma isoform (Homo sapiens) (UniProt P48736)", "sequence (P48736 whole entry, looked up, canonical isoform)": "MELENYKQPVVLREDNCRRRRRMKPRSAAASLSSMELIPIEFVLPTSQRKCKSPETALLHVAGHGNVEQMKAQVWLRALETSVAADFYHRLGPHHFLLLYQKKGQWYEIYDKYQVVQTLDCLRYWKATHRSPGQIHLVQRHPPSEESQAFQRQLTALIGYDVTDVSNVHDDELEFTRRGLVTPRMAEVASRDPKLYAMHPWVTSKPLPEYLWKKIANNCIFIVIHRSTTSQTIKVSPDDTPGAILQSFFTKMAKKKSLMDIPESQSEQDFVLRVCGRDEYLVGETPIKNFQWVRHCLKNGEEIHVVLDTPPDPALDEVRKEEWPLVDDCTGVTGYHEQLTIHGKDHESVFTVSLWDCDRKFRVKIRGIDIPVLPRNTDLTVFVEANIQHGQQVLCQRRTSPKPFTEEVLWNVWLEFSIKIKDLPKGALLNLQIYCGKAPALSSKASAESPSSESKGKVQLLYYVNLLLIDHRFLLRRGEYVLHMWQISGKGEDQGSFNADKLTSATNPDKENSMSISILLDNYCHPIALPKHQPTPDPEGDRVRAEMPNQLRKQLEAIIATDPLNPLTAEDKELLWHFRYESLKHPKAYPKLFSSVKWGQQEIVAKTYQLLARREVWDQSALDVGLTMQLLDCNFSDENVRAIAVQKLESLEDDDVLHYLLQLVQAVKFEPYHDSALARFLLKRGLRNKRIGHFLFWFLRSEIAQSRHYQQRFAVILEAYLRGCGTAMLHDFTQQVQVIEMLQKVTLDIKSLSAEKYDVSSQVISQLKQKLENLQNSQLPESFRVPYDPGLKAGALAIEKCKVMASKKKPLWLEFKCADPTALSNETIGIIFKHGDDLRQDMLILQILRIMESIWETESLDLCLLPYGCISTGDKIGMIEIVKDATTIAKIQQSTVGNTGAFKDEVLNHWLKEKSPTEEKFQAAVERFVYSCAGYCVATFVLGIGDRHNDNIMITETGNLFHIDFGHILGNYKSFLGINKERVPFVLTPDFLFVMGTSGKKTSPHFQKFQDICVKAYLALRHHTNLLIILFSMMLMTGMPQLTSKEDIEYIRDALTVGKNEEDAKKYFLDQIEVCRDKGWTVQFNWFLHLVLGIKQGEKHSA", "assay": "Inhibition of DNA-tagged human PIK3CG assessed as percent of control at 50000 nM by qPCR analysis relative to control"}, "[10]": {"target": "NT-3 growth factor receptor (Homo sapiens) (UniProt Q16288)", "assay": "Inhibition of DNA-tagged human TRKC assessed as percent of control at 50000 nM by qPCR analysis relative to control"}, "[11]": {"target": "LIM domain kinase 1 (Homo sapiens) (UniProt P53667)", "assay": "Inhibition of DNA-tagged human LIMK1 assessed as percent of control at 50000 nM by qPCR analysis relative to control"}, "[12]": {"target": "Interleukin-1 receptor-associated kinase 4 (Homo sapiens) (UniProt Q9NWZ3)", "sequence (Q9NWZ3 whole entry)": "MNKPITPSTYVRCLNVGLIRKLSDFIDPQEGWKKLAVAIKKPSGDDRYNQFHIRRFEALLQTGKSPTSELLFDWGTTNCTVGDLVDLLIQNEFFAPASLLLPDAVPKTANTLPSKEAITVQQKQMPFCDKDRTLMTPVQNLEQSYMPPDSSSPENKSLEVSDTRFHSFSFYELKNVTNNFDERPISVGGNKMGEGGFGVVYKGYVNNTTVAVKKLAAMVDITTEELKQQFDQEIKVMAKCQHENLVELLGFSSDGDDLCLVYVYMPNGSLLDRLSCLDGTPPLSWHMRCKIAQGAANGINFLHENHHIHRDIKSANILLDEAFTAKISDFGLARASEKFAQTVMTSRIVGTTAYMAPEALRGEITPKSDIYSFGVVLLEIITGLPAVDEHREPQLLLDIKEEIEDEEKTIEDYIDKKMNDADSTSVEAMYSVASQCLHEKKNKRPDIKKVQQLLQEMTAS", "assay": "Inhibition of DNA-tagged human IRAK4 assessed as percent of control at 50000 nM by qPCR analysis relative to control"}, "[13]": {"target": "Serine/threonine-protein kinase MAK (Homo sapiens) (UniProt P20794)", "assay": "Inhibition of DNA-tagged human MAK assessed as percent of control at 50000 nM by qPCR analysis relative to control"}, "[14]": {"target": "Tyrosine-protein kinase JAK2 (Homo sapiens) (UniProt O60674)", "assay": "Inhibition of DNA-tagged human JAK2 JH1 catalytic domain assessed as percent of control at 50000 nM by qPCR analysis relative to control"}, "[15]": {"target": "Tyrosine-protein kinase Fes/Fps (Homo sapiens) (UniProt P07332)", "assay": "Inhibition of DNA-tagged human FES assessed as percent of control at 50000 nM by qPCR analysis relative to control"}, "[16]": {"target": "Mitogen-activated protein kinase kinase kinase 6 (Homo sapiens) (UniProt O95382)", "assay": "Inhibition of DNA-tagged human ASK2 assessed as percent of control at 50000 nM by qPCR analysis relative to control"}, "[17]": {"tested_on": "Mast/stem cell growth factor receptor Kit (Homo sapiens), P10721 [D816V]", "assay": "Inhibition of DNA-tagged human KIT D816V mutant assessed as percent of control at 50000 nM by qPCR analysis relative to control"}, "[18]": {"target": "Serine/threonine-protein kinase 16 (Homo sapiens) (UniProt O75716)", "sequence (O75716 whole entry)": "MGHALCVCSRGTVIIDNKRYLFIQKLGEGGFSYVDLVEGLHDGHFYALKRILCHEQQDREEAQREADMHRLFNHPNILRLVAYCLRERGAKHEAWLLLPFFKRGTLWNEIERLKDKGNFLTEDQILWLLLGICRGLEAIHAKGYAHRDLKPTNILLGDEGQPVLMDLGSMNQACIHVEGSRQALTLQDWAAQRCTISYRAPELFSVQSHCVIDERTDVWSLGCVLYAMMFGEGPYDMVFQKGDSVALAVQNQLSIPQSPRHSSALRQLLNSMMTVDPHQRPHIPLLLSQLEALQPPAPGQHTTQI", "assay": "Inhibition of DNA-tagged human STK16 assessed as percent of control at 50000 nM by qPCR analysis relative to control"}, "[19]": {"target": "Phosphatidylinositol 4-phosphate 5-kinase type-1 gamma (Homo sapiens) (UniProt O60331)", "assay": "Inhibition of DNA-tagged human PIP5K1C assessed as percent of control at 50000 nM by qPCR analysis relative to control"}, "[20]": {"target": "Dual specificity protein kinase CLK1 (Homo sapiens) (UniProt P49759)", "assay": "Inhibition of DNA-tagged human CLK1 assessed as percent of control at 50000 nM by qPCR analysis relative to control"}, "[21]": {"tested_on": "Tyrosine-protein kinase ABL1 (Homo sapiens), P00519 [UNDEFINED MUTATION]", "assay": "Inhibition of DNA-tagged phosphorylated human ABL1 […] mutant assessed as percent of control at 50000 nM by qPCR analysis relative to control"}, "[22]": {"target": "cAMP-dependent protein kinase catalytic subunit alpha (Homo sapiens) (UniProt P17612)", "assay": "Inhibition of DNA-tagged human PKAC-alpha assessed as percent of control at 50000 nM by qPCR analysis relative to control"}, "[23]": {"tested_on": "Epidermal growth factor receptor (Homo sapiens), P00533 [UNDEFINED MUTATION]", "assay": "Inhibition of DNA-tagged human EGFR L747-E749del/A750P double mutant assessed as percent of control at 50000 nM by qPCR analysis relative to control"}, "[24]": {"target": "Serine/threonine-protein kinase BRSK1 (Homo sapiens) (UniProt Q8TDC3)", "sequence (Q8TDC3 whole entry)": "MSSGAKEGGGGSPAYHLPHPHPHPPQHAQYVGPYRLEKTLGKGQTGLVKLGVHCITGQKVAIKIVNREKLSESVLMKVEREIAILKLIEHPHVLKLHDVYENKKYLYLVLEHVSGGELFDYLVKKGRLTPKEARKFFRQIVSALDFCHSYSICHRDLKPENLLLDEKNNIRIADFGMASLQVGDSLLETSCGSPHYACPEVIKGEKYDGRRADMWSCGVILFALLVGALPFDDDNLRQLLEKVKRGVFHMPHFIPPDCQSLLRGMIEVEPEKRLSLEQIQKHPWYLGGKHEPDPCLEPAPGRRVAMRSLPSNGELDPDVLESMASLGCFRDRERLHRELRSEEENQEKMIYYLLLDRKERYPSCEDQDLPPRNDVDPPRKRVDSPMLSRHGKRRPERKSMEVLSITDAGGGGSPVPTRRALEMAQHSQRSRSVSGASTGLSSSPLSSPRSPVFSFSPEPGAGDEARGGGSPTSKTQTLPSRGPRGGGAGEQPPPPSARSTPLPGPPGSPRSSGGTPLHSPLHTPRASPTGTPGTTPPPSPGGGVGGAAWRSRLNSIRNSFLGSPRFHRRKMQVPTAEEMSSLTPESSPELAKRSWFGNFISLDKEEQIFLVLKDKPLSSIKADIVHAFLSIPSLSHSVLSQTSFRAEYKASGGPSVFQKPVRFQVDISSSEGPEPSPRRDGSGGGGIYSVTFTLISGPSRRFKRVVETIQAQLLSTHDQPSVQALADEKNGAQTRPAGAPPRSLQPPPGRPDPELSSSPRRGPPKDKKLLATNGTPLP", "assay": "Inhibition of DNA-tagged human BRSK1 assessed as percent of control at 50000 nM by qPCR analysis relative to control"}, "[25]": {"target": "Serine/threonine-protein kinase ULK1 (Homo sapiens) (UniProt O75385)", "assay": "Inhibition of DNA-tagged human ULK1 assessed as percent of control at 50000 nM by qPCR analysis relative to control"}, "[26]": {"tested_on": "Tyrosine-protein kinase ABL1 (Homo sapiens), P00519 [T315I]", "assay": "Inhibition of DNA-tagged non-phosphorylated human ABL1 T315I mutant assessed as percent of control at 50000 nM by qPCR analysis relative to control"}, "[27]": {"target": "Interferon-induced, double-stranded RNA-activated protein kinase (Homo sapiens) (UniProt P19525)", "assay": "Inhibition of DNA-tagged human PRKR assessed as percent of control at 50000 nM by qPCR analysis relative to control"}, "[28]": {"target": "Serine/threonine-protein kinase PknB (Mycobacterium tuberculosis) (UniProt P9WI81)", "assay": "Inhibition of DNA-tagged Mycobacterium tuberculosis PKNB assessed as percent of control at 50000 nM by qPCR analysis relative to control"}, "[29]": {"target": "Leucine-rich repeat serine/threonine-protein kinase 2 (Homo sapiens) (UniProt Q5S007)", "assay": "Inhibition of DNA-tagged human LRRK2 assessed as percent of control at 50000 nM by qPCR analysis relative to control"}},
  "data": [
    {"compound": "CN1C(=O)/C(=C2/C(=O)Nc3ccccc32)c2ccccc21", "values": [
      {"measurement": "Activity", "setting": "[1]", "result": 88, "unit": "%"},
      {"measurement": "Activity", "setting": "[2]", "result": 84, "unit": "%"},
      {"measurement": "Activity", "setting": "[3]", "result": 86, "unit": "%"},
      {"measurement": "Activity", "setting": "[4]", "result": 92, "unit": "%"},
      {"measurement": "Activity", "setting": "[5]", "result": 100, "unit": "%"},
      {"measurement": "Activity", "setting": "[6]", "result": 100, "unit": "%"},
      {"measurement": "Activity", "setting": "[7]", "result": 78, "unit": "%"},
      {"measurement": "Activity", "setting": "[8]", "result": 87, "unit": "%"},
      {"measurement": "Activity", "setting": "[9]", "result": 100, "unit": "%"},
      {"measurement": "Activity", "setting": "[10]", "result": 66, "unit": "%"},
      {"measurement": "Activity", "setting": "[11]", "result": 84, "unit": "%"},
      {"measurement": "Activity", "setting": "[12]", "result": 75, "unit": "%"},
      {"measurement": "Activity", "setting": "[13]", "result": 71, "unit": "%"},
      {"measurement": "Activity", "setting": "[14]", "result": 73, "unit": "%"},
      {"measurement": "Activity", "setting": "[15]", "result": 95, "unit": "%"},
      {"measurement": "Activity", "setting": "[16]", "result": 100, "unit": "%"},
      {"measurement": "Activity", "setting": "[17]", "result": 100, "unit": "%"},
      {"measurement": "Activity", "setting": "[18]", "result": 89, "unit": "%"},
      {"measurement": "Activity", "setting": "[19]", "result": 81, "unit": "%"},
      {"measurement": "Activity", "setting": "[20]", "result": 100, "unit": "%"},
      {"measurement": "Activity", "setting": "[21]", "result": 94, "unit": "%"},
      {"measurement": "Activity", "setting": "[22]", "result": 93, "unit": "%"},
      {"measurement": "Activity", "setting": "[23]", "result": 83, "unit": "%"},
      {"measurement": "Activity", "setting": "[24]", "result": 94, "unit": "%"},
      {"measurement": "Activity", "setting": "[25]", "result": 68, "unit": "%"},
      {"measurement": "Activity", "setting": "[26]", "result": 94, "unit": "%"},
      {"measurement": "Activity", "setting": "[27]", "result": 80, "unit": "%"},
      {"measurement": "Activity", "setting": "[28]", "result": 100, "unit": "%"},
      {"measurement": "Activity", "setting": "[29]", "result": 96, "unit": "%"}
    ]}
  ]
}
